Where two headings read alike, the source gives them in different places.

Results on 22 compounds are retold here after patent publication US10941121B2 (AZIENDA OSPEDALIERA UNIVERSITARIA SENESE, priority 2015, dated 2021).

Data set [1] concerns the target T1, DDX3 Helicase (Homo sapiens, UniProt O00571). Kind of data set: biochemical.
A short description of data set [2]: Cytotoxicity, MTT method in LUNET cells. The note with it: human; MMT method in LUNET cells; read-out: CC50 (μM) non-infected cells. Type of data set: cell-based. As to the method:
Toxicity (CC50) was analysed in the Lunet/HuH7 cells by the addition of 10 μL of MTT (3-(4,5-dimethylthiazol-2-yl)-2,5-diphenyltetrazolium bromide) per well. After 4 h of incubation at 37° C. in a humidified atmosphere with 5% CO2, the amount of formazan produced was quantified spectrophotometrically at 550/620 nm (C. Pannecouque et al, Nature protocol 2008; 3 (3): 427-434). […] These assays were done in duplicate.

The subject of data set [3] is Hepatitis C Virus (HCV) replicon system. Kind of data set: HCV replicon system, luciferase method in LucUbiNeo-ET cells. The note with it: for EC50: Hepatitis C virus, 48 h, read-out: EC50 (μM) HCV replicon system. (A replicon is a self-replicating genome or part of one, used to study replication in cells.)
Data set [4] concerns the target T1, DDX3 Helicase. Conditions: for IC50: read-out: ID50 (μM) against DDX3 Helicase, n.a. = compound not active.

T1 sequence (O00571 whole entry): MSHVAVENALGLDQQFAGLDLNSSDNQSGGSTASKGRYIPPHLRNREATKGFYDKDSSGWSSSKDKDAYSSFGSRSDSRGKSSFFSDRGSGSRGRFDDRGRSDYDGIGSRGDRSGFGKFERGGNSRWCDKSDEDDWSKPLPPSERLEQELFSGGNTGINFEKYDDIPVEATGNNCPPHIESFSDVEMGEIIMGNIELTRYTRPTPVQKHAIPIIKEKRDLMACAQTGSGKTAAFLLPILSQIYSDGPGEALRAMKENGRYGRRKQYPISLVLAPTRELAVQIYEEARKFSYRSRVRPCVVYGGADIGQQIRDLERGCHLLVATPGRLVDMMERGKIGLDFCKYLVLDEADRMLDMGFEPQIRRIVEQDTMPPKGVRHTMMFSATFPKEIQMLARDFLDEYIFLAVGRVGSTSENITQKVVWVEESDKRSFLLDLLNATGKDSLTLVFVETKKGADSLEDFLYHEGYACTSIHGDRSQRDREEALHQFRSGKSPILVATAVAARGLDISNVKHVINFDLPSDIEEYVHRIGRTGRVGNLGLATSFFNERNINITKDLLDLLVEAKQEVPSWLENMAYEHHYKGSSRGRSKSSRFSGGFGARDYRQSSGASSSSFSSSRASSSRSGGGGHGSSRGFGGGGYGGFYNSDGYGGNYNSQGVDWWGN

For the compound `CCCCc1cn(-c2ccc(S(=O)(=O)Nc3ccccc3O)cc2)nn1` [Compound 65a, 4-(4-butyl-1H-1,2,3-triazol-1-yl)-N-(2-hydroxyphenyl)benzenesulfonamide], in data set [1], the IC50 was found to be 15.5 µM.
As to `Cc1cn(-c2ccc(NC(=O)Nc3ccccc3C)cc2)nn1` [Compound 8f, 1-(4-(4-methyl-1H-1,2,3-triazol-1-yl)phenyl)-3-o-tolylurea], in data set [2], the CC50 (as a rule, the concentration at which the toxic effect on the cells reaches its halfway point) was 36 µM. Moreover, the EC50 (as a rule, the concentration giving half of the maximal effect) in data set [3] was above 36 µM.
For the compound `CCc1cn(-c2ccc(NC(=O)Nc3ccccc3C)cc2)nn1` [Compound 8g, 1-(4-(4-ethyl-1H-1,2,3-triazol-1-yl)phenyl)-3-o-tolylurea], the CC50 in data set [2] turned out to be 295 µM. The compound further had an IC50 in data set [1] of 0.98 µM. For the same compound, the EC50 in data set [3] was found to be 36 µM.
As for `Cc1ccccc1NC(=O)Nc1ccc(-n2cc(CCCN(C)C)nn2)cc1` [Compound 35i, 1-(4-(4-(dimethylaminopropyl)-1H-1,2,3-triazol-1-yl)phenyl)-3-o-tolylurea], in data set [4], the IC50 came out at 2.9 µM.
As to `CCCCc1cn(-c2ccc(NC(=O)Nc3cnccc3C)cc2)nn1` [Compound 15a, 1-(4-(4-butyl-1H-1,2,3-triazol-1-yl)phenyl)-3-(4-methylpyridin-3-yl)urea], the IC50 in data set [1] is 1.47 µM.
As for `Cc1ccccc1NC(=O)Nc1ccc(-n2cc(CCO)nn2)cc1` [Compound 35b, 1-(4-(4-(hydroxyethyl)-1H-1,2,3-triazol-1-yl)phenyl)-3-o-tolylurea], the CC50 in data set [2] is above 370 µM. Further, in data set [1], the IC50 was found to be 20 µM. In data set [3], the EC50 turned out to be 28.9 µM.
Compound `Cc1ccccc1NC(=O)Nc1ccc(-n2cc(CN(C)Cc3ccccc3)nn2)cc1` [Compound 8c, 1-(4-(4-methanamine,N-[(phenyl)methyl]-N-methyl-1H-1,2,3-triazol-1yl)phenyl)-3-o-tolylurea] yielded an IC50 in data set [1] of 22.8 µM.
`Cc1ccncc1NC(=O)Nc1ccc(-n2cc(CCC(C)C)nn2)cc1` [Compound 15b, 1-(4-(4-isopentyl-1H-1,2,3-triazol-1-yl)phenyl)-3-(4-methylpyridin-3-yl)urea]: in data set [2], the CC50 came to 180 µM. In data set [1], this compound registered an IC50 of 2 µM. For the same compound, the EC50 in data set [3] was 3.65 µM.
For `Cc1ccccc1NC(=O)Nc1ccc(-n2cc(CCN3CCOCC3)nn2)cc1` [Compound 35f, 1-(4-(4-(morpholinoethyl)-1H-1,2,3-triazol-1-yl)phenyl)-3-o-tolylurea], in data set [2], the CC50 was above 125 µM. Further, the EC50 in data set [3] was above 125 µM.
Regarding `CCCC(C)C(F)c1cn(-c2ccc(NC(=O)Nc3ccccc3C(F)(F)F)cc2)nn1` (stereo not shown) [Compound 42c, 1-(4-(4-(1-fluoro-2-methylpentyl)-1H-1,2,3-triazol-1-yl)phenyl)-3-(2-(trifluoromethyl)phenyl) urea], the IC50 in data set [1] is 0.3 µM.
Take `Cc1ccccc1NC(=O)Nc1ccc(-n2cc(C(C)(C)C)nn2)cc1` [Compound 8b, 1-(4-(4-tert-butyl-1H-1,2,3-triazol-1-yl)phenyl)-3-o-tolylurea]: the CC50 in data set [2] turned out to be 100 µM. In data set [1], this compound displayed an IC50 of 3.36 µM. The EC50 in data set [3] was determined as 5.73 µM.
Turning to `CC(C)CCc1cn(-c2ccc(NC(=O)Nc3ccccc3F)cc2)nn1` [Compound 55a, 1-(2-fluorophenyl)-3-(4-(4-isopentyl-1H-1,2,3-triazol-1-yl)phenyl)urea], the CC50 in data set [2] was above 340 µM. In data set [4] (in words), the “DDX3 helicase activity compared with EI01D” value was “approximately ten-fold more active”. Further, in data set [4], the IC50 is 0.12 µM. Moreover, in data set [3], the “activity against HCV, in words” value is recorded as “best activity” and the EC50 is 0.4 µM.
On to `CC(C)CC(=O)OCCc1cn(-c2ccc(NC(=O)Nc3ccccc3C(F)(F)F)cc2)nn1` [Compound 38, 2-(1-(4-(3-(2-(trifluoromethyl)phenyl)ureido)phenyl)-1H-1,2,3-triazol-4-yl)ethyl 3-methylbutanoate], for which, in data set [2], the CC50 was found to be 23.2 µM. Also, in data set [4], the IC50 is 0.4 µM. The EC50 in data set [3] is 0.5 µM.
As to `Cc1ccccc1NC(=O)Nc1ccc(-n2cc(CN3CCOCC3)nn2)cc1` [Compound 35e, 1-(4-(4-(morpholinomethyl)-1H-1,2,3-triazol-1-yl)phenyl)-3-o-tolylurea], the CC50 in data set [2] was above 125 µM. Also, the EC50 in data set [3] is above 125 µM.
For the compound `CCCCc1cn(-c2cccc(S(=O)(=O)Nc3ccc(OC)cc3)c2)nn1` [Compound 64b, 3-(4-butyl-1H-1,2,3-triazol-1-yl)-N-(4-methoxyphenyl)benzenesulfonamide], the IC50 in data set [1] is 52.2 µM.
For the compound `CCOCn1nnc(-c2ccc(NC(=O)Nc3ccccc3C)cc2)n1` [Compound 50, 1-(4-(2-(ethoxymethyl)-2H-tetrazol-5-yl)phenyl)-3-(o-tolyl)urea], the CC50 in data set [2] came out at 245 µM. In data set [1], this compound had an IC50 of 14 µM. Besides, the EC50 in data set [3] stood at 22.8 µM.
`CCCCn1nnc(-c2ccc(NC(=O)Nc3cnccc3C)cc2)n1` [Compound 52, 1-(4-(2-butyl-2H-tetrazol-5-yl)phenyl)-3-(4-methylpyridin-3-yl)urea] showed an IC50 in data set [1] of 2.49 µM.
Take `Cc1nc(Cl)c2ccccc2c1NC(=O)Nc1ccc(-n2cc(CCC(C)C)nn2)cc1` [Compound 55g, 1-(1-chloro-3-methylisoquinolin-4-yl)-3-(4-(4-isopentyl-1H-1,2,3-triazol-1-yl)phenyl)urea]: in data set [2], the CC50 was above 278 µM. This compound registered an IC50 in data set [1] of 10 µM. Besides, in data set [3], the EC50 stood at 12.4 µM.
On to `Cc1ccccc1NC(=O)Nc1ccc(-n2cc(C(F)(F)C(F)(F)C(F)(F)C(F)(F)F)nn2)cc1` [Compound 20c], for which the CC50 in data set [2] was above 125 µM. In addition, the IC50 in data set [4] is 6 µM. In addition, in data set [3], the EC50 is above 125 µM.
On to `O=C(Nc1ccc(-n2cc(CCOC(=O)/C=C/c3ccc4c(c3)OCO4)nn2)cc1)Nc1ccccc1C(F)(F)F` [Compound 39, 2-(1-(4-(3-(2-(trifluoromethyl)phenyl)ureido)phenyl)-1H-1,2,3-triazol-4-yl)ethyl 3-(benzo[d][1,3]dioxol-5-yl)acrylate], for which the CC50 in data set [2] came out at 28.6 µM. For the same compound, the IC50 in data set [4] worked out at 5.1 µM. The EC50 in data set [3] was 4.3 µM.
Consider `Cc1ccccc1NC(=O)Nc1ccc(-n2cc(CO)nn2)cc1` [Compound 35a, 1-(4-(4-(hydroxymethyl)-1H-1,2,3-triazol-1-yl)phenyl)-3-o-tolylurea], for which the IC50 in data set [1] was found to be 17.5 µM.
In the case of `Cc1ccccc1NC(=O)Nc1ccc(-n2cc(CCOC(=O)CC(C)C)nn2)cc1` [Compound 37, 2-(1-(4-(3-(o-tolyl)ureido)phenyl)-1H-1,2,3-triazol-4-yl)ethyl 3-methylbutanoate], the CC50 in data set [2] was found to be 180 µM. Also, the IC50 in data set [4] was found to be 1.3 µM. Further, in data set [3], the EC50 came out at 11.7 µM.
